Source: US20080051463A1, “ANTHRACENE COMPOUNDS AND THEIR USE FOR TREATING BENIGN AND MALIGNANT TUMOR DISORDERS” (AETERNA ZENTARIS GmbH, priority 2006, published 2008)
≈ marks a conversion by molar mass, not a printed value.

Assays:
[1] = molecular target: T1, complete recombinant KIF5A (Homo sapiens, UniProt Q12840); experiment: Inhibition of KIF5A ATPase activity (end-point assay); format: biochemical; details: microtubulus-activatable ATPase
T1 construct: Here, use was made of complete recombinant KIF5A
T1 sequence (Q12840 1-1032): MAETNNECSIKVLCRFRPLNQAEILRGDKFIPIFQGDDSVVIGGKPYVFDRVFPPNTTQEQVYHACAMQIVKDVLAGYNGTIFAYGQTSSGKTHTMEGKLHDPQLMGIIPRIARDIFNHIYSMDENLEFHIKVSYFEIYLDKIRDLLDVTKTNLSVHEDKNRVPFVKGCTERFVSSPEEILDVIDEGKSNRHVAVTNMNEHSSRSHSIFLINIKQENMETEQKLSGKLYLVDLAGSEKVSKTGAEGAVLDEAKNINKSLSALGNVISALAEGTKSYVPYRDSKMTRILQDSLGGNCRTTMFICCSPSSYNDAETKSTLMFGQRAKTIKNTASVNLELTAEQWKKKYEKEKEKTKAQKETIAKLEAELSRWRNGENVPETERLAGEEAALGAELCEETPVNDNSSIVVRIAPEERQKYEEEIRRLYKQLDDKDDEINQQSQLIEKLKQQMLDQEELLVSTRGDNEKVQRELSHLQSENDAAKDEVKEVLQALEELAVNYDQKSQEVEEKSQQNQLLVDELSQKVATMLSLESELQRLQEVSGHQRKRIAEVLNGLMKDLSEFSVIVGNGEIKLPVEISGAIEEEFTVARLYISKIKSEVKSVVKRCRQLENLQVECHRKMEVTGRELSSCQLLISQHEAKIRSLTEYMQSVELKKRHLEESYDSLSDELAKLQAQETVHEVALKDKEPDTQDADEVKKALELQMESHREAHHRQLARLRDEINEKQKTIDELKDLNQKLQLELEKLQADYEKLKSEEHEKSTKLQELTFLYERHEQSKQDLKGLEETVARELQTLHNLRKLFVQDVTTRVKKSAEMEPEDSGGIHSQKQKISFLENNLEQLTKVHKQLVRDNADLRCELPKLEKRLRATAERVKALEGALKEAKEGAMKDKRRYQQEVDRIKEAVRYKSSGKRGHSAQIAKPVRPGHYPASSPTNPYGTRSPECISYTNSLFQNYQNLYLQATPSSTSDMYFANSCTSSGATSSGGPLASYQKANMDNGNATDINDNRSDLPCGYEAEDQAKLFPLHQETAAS
Description: In an in vitro test, compound 1 was examined for inhibition of KIF5A ATPase activity. Here, use was made of complete recombinant KIF5A (Niclas J, Navone F, Hom-Booher N, Vale R D Neuron 1994, 12:1059-1072).
The activity of the microtubulus-activatable ATPase was determined by end-point assay. For tubulin isolation and preparation of the microtubuli see citations in Example II) b).
Table 6 states the EC50 value of the ATPase inhibition of KIF5A by compound 1 according to the invention.

[2] = tested on: RKOp27 human colon carcinoma cells; experiment: Proliferation test, RKOp27 cell system without p27kiP1 expression; format: cell-based; details: RKOp27 without expression of p27kiP1
Text: (§1) The antiproliferative activity of the compounds 1, 2, 4, 6, 7, 9, 10, 11, 12 and 13 according to the invention was investigated in a proliferation test performed on established tumor cell lines (D. A. Scuderio et al. Cancer Res. 1988, 48: 4827-4833).
(§2) The test used determines the cellular dehydrogenase activity and makes it possible to determine cell viability and determine cell number indirectly.
(§3) The cell lines used are the human cervical carcinoma cell line KB/HeLa (ATCC CCL17), the ovarian adenocarcinoma cell line SKOV-3 (ATCC HTB77), the human glioblastoma cell line SF-268 (NCI-503138) and the lung carcinoma cell line NCI-H460 (NCI-503473). In addition, an RKOp27 cell system was used for investigating the cell cycle-specific effect of the substance (M. Schmidt et al. Oncogene 2000, 19(20): 2423-9).
RKO is a human colon carcinoma line in which expression of the cell cycle inhibitor p27^kiP1 can be induced using the ecdysone expression system and lead to cell cycle arrest specifically in […].
By contrast, cell cycle-specific substances, such as, for example, tubulin inhibitors, are only cytotoxic when cells are not arrested and the cell cycle is passed through.

[3] = tested on: human cervical carcinoma cell line KB/HeLa; experiment: Proliferation test (cellular dehydrogenase activity), KB/HeLa; format: cell-based
Text: as §1, §2, §3

[4] = tested on: lung carcinoma cell line NCI-H460; experiment: Proliferation test (cellular dehydrogenase activity), NCI-H460; format: cell-based; details: Homo sapiens
Text: as §1, §2, §3

porcine brain tubulin = tested on: T2, porcine brain tubulin; experiment: Inhibition of the polymerization of porcine brain tubulin (turbidimetric); format: biochemical; details: porcine brain tubulin with about 15% MAPs, GTP, 37° C.
T2 construct: In addition to tubulin, the protein used comprises about 15% of associated proteins (MAPs)
Description: b) In an in vitro test, the compounds 1, 2, 4 and 7 were tested for inhibition of the polymerization of porcine brain tubulin. In this test, tubulin purified by polymerization and depolymerization cycles is used (Shelanski et al. Proc. Natl. Acad. Sci. U.S.A. 1973, 70, 765-768 modified according to Vater et al. Acta Histochem. Suppl. 1986, 33, 123-129), which is polymerized by addition of GTP and heating to 37° C. In addition to tubulin, the protein used comprises about 15% of associated proteins (MAPs). The measurement values were determined turbidimetrically according to Gaskin et al. J. Mol. Biol. 89 (1974) 737-755.
Table 3 states the EC50 value of the polymerization inhibition.

Question: Which EC50 [1] does the source give for `O=C(C=C1c2ccccc2C(=O)c2ccccc21)c1ccc(O)c(O)c1` [Compound 1, 10-[2-(3,4-dihydroxy-phenyl)-2-oxo-ethylidene]-10H-anthracen-9-one] here?
Answer: 61.9 µM

Question: And the EC50 [2]?
Answer: 0.083 µg/mL (≈ 0.242 µM)

Question: And the EC50 [3]?
Answer: 0.091 µg/mL (≈ 0.266 µM)

Question: What about the EC50 [4] of the same molecule?
Answer: 0.146 µg/mL (≈ 0.426 µM)

Question: What about the “EC50 of the polymerization inhibition” value (porcine brain tubulin) of the same molecule?
Answer: 3.0 µg/mL
